# Patent US20090305980A1, “Methods and Compositions Related to TR4” (UNIVERSITY OF ROCHESTER, priority 2006, published 2009)
# How the values were obtained:
# TR4 KO MEFs = assay: Cellular ROS levels by flow cytometry in TR4 KO MEFs; type: cell-based, mouse
# Method: (§1) MEFs from wt and TR4 KO were treated with 200 μM H2O2 for 30 min in the presence/absence of 100 nM of α-tocopherol, and the cellular ROS levels were then measured by flow cytometric analysis. The relative ROS levels were calculated by comparing with untreated MEFs from wt and TR4 KO independently.
# (§2) Replicative senescence has been employed as a cellular model for aging and it occurs primarily in response to oxidative DNA damage (Campisi, J. et al. (2005) Cell, 120: 513-522). Wt MEFs grow well for approximately 2-3 doublings (P2-3) before decreasing in proliferation, and after 8-10 doublings, the cell senescence occurs. In contrast, TR4 KO MEFs proliferation drastically decline after P4 (FIG. 4A). ROS contribute to cells senescence, and how cells respond to oxidative stress would determine the life span. The amounts of cellular ROS in MEFs were determined by flow cytometry using DCFH-DA. […] When MEFs were exposed to H2O2 and measured cellular ROS levels, the amounts of fluorescence in both in wt and TR4 KO increased after H2O2 treatment; TR4 KO MEFs accumulated more ROS than wt MEFs.
# To test if TR4 is involved in low molecular weight antioxidant (LMWA), such as vitamin E anti-oxidant effects, fibroblasts from TR4 KO and wt were challenged with 250 μM H2O2 in the presence of 100 nM α-tocopherol and VES.
# To determine if TR4 is a mediator for non-enzymatic antioxidants, including vitamin C, vitamin E, β-carotene, and selenium, to suppress ROS production in the cells, cellular ROS levels are examined in LMWA-treated MEFs to antagonize oxidative stress. MEFs from TR4 KO and wt are treated with LMWA with/without H2O2 oxidative stress challenge as ROS levels are measured. The ones that lose its anti-oxidant activity in KO MEFs but not wt MEFs are the candidates. […] Therefore, TR4 is mediated by some LMWAs, such as vitamin E, to suppress cellular ROS production. Herein, the anti-ROS effects are compared on TR4 KO vs wt MEFs in response to other LMWAs. The focus is on how TR4 regulates vitamin E and the other LMWA that lost anti-ROS response in TR4 KO MEFs.
# wt MEFs = assay: Cellular ROS levels by flow cytometry in wt MEFs; type: cell-based, mouse
# Method: as §1
# as §2, with “ROS contribute to cells senescence, and how cells respond to oxidative stress would determine the life span.” left out, “MEFs. […]” for “MEFs.”
# To determine if TR4 is a mediator for non-enzymatic antioxidants, including vitamin C, vitamin E, β-carotene, and selenium, to suppress ROS production in the cells, cellular ROS levels are examined in LMWA-treated MEFs to antagonize oxidative stress. MEFs from TR4 KO and wt are treated with LMWA with/without H2O2 oxidative stress challenge as ROS levels are measured. […]
compound,measurement,setting,value
"Cc1c(C)c2c(c(C)c1O)CC[C@@](C)(CCC[C@H](C)CCC[C@H](C)CCCC(C)C)O2 [vitamin E, α-tocopherol]",intrinsic and exogenous ROS production,"TR4 KO MEFs; KO MEFs, 10^−7 M vitamin E",not
same,vitamin E anti-ROS effects (relative ROS levels),"TR4 KO MEFs; TR4KO MEFs, 200 μM H2O2 for 30 min, 100 nM α-tocopherol",loss of vitamin E anti-ROS effects
same,ROS (vitamin E-mediated anti-oxidant effect),"TR4 KO MEFs; TR4 KO fibroblasts, 250 μM H2O2, 100 nM α-tocopherol and VES",lost the vitamin E-mediated anti-oxidant effect
same,intrinsic and exogenous ROS production,"wt MEFs; wt MEFs, 10^−7 M vitamin E",can reduce
same,ROS (vitamin E-mediated anti-oxidant effect),"wt MEFs; wt fibroblasts, 250 μM H2O2, 100 nM α-tocopherol and VES",reduction of ROS
